# According to BindingDB's records for doi:10.1016/j.bmc.2009.11.062 (Medical University of Lublin, 2010):
# Assay: Agonist activity beta2-adrenergic receptor in rat ventricular myocytes assessed as cell contraction following electrical stimulation by optical edge tracking method using photodiode array
row,SMILES,EC50 [nM]
1,CC[C@H](Cc1ccc(O)cc1)NC[C@H](O)c1cc(O)cc(O)c1,8550
2,COc1ccc(C[C@@H](C)NC[C@H](O)c2cc(O)cc(O)c2)c2ccccc12,16
3,C[C@H](Cc1ccc2ccccc2c1)NC[C@H](O)c1cc(O)cc(O)c1,133
